Data as given in ChEMBL document CHEMBL1129601, “Inhibitors of acyl-CoA: cholesterol O-acyl transferase (ACAT) as hypocholesterolemic agents. CI-1011: an acyl sulfamate with unique cholesterol-lowering activity in animals fed noncholesterol-supplemented diets” (J Med Chem, 1996).
Several values for one entry are separate records, joined by “and”; a condition that tells them apart may be missing. Equal entries are not always repeated.

How the values were obtained:
[1] = test system: Rattus norvegicus; assay: Evaluated for %change in cholesterol fed rats for HDL-C at the dose of 0.03 mg/kg determined by Chronic screen test; format: functional
[2] = test system: Rattus norvegicus; assay: Effect on the Cholesterol fed rats for total cholesterol level in rats at the dose of 0.01 mg/kg by Chroinc screen test; format: functional
[3] = test system: Rattus norvegicus; assay: Effect on the Cholesterol fed rats for HDL-C in rats at the dose of 0.3 mg/kg by Chroinc screen test; format: functional; further: unit not given here
[4] = test system: Oryctolagus cuniculus; assay: Effect on Rabbits (Fed a Cholesterol-Free Casein Diet ) for plasma cholesterol at the dose of 1 mg/kg (post treatment); format: functional, organism-based; set-up: dose 1 mg/kg
[5] = test system: Rattus norvegicus; assay: Effect on the Cholesterol fed rats for non-HDL-C in rats at the dose of 0.001 mg/kg by Chroinc screen test; format: functional
[6] = test system: Rattus norvegicus; assay: Effect on the Cholesterol fed rats for total cholesterol level in rats at the dose of 10 mg/kg by Chroinc screen test; format: functional; further: unit not given here
[7] = test system: Rattus norvegicus; assay: Effect on the plasma Cholesterol level in rats at the dose of 0.3 mg/kg by Acute screen test; format: functional, organism-based; set-up: dose 0.3 mg/kg
[8] = test system: Rattus norvegicus; assay: Effect on the Cholesterol fed rats for total cholesterol level in rats at the dose of 0.1 mg/kg by Chroinc screen test; format: functional; further: unit not given here
[9] = test system: Rattus norvegicus; assay: Effect on the Cholesterol fed rats for non-HDL-C in rats at the dose of 1 mg/kg by Chroinc screen test; format: functional
[10] = test system: Rattus norvegicus; assay: Effect on the Normal, Chow fed rats for Plasma total triglyceride level in rats at the dose of 3 mg/kg; format: functional, organism-based; set-up: dose 3 mg/kg
[11] = test system: Rattus norvegicus; assay: Effect on the Normal, Chow fed rats for total cholesterol plasma level in rats at the dose of 3 mg/kg; format: functional, organism-based; set-up: dose 3 mg/kg
[12] = test system: Rattus norvegicus; assay: Effect on the Cholesterol fed rats for HDL-C in rats at the dose of 0.1 mg/kg by Chroinc screen test; format: functional
[13] = test system: Rattus norvegicus; assay: Evaluated for %change in cholesterol fed rats for non-HDL-C at the dose of 3 mg/kg determined by Chronic screen test; format: functional
[14] = test system: Rattus norvegicus; assay: Effect on the Cholesterol fed rats for HDL-C in rats at the dose of 1 mg/kg by Chroinc screen test; format: functional; further: unit not given here
[15] = test system: Rattus norvegicus; assay: Evaluated for %change in Normal, Chow fed for rats Plasma total triglyceride plasma level in rats at the dose of 10 mg/kg; format: functional
[16] = test system: Rattus norvegicus; assay: Effect on the Cholesterol fed rats for HDL-C in rats at the dose of 3 mg/kg by Chroinc screen test; format: functional
[17] = test system: Rattus norvegicus; assay: Effect on the plasma cholesterol level in rats at the dose of 10 mg/kg by Acute screen test; format: functional, organism-based; set-up: dose 10 mg/kg
[18] = test system: Rattus norvegicus; assay: Evaluated for %change in cholesterol fed rats for HDL-C at the dose of 1 mg/kg determined by Chronic screen test; format: functional
[19] = test system: Rattus norvegicus; assay: Evaluated for %change in cholesterol fed rats at the dose of 10 mg/kg determined by Acute screen test; format: functional
[20] = test system: Rattus norvegicus; assay: Effect on the plasma Cholesterol level in rats at the dose of 0.1 mg/kg by Acute screen test; format: functional, organism-based; set-up: dose 0.1 mg/kg
[21] = test system: Rattus norvegicus; assay: Effect on the Cholesterol fed rats for non-HDL-C in rats at the dose of 3 mg/kg by Chroinc screen test; format: functional; further: unit not given here
[22] = test system: Rattus norvegicus; assay: Effect on the Normal, Chow fed rats for Plasma total triglyceride level in rats at the dose of 30 mg/kg; format: functional, organism-based; set-up: dose 30 mg/kg
[23] = test system: Rattus norvegicus; assay: Evaluated for %change in cholesterol fed rats for total cholesterol at the dose of 3 mg/kg determined by Chronic screen test; format: functional
[24] = test system: Rattus norvegicus; assay: Evaluated for %change in cholesterol fed rats for total cholesterol at the dose of 0.1 mg/kg determined by Chronic screen test; format: functional
[25] = test system: Rattus norvegicus; assay: Effect on the plasma cholesterol level in rats at the dose of 1 mg/kg by Acute screen test; format: functional, organism-based; set-up: dose 1 mg/kg
[26] = test system: Rattus norvegicus; assay: Evaluated for %change in cholesterol fed rats for non-HDL-C at the dose of 0.01 mg/kg determined by Chronic screen test; format: functional

Q: Which results are given for CC(C)c1cc(C(C)C)c(CC(=O)NS(=O)(=O)Oc2c(C(C)C)cccc2C(C)C)c(C(C)C)c1 [AVASIMIBE]?
A: Change [1]: -12%; TC [2]: 619; HDL-C [3]: 20; Plasma cholesterol [4]: 184 mg/dL; Non-HDL-C [5]: 535; TC [6]: 69; Plasma cholesterol [7]: 81 mg/dL; TC [8]: 131 and 323; Non-HDL-C [9]: 61; Plasma TG [10]: 95 mg/dL; Plasma TC [11]: 49 mg/dL; HDL-C [12]: 16 and 18; Change [13]: -72%; HDL-C [14]: 25; Change [15]: -55%; HDL-C [16]: 33; Plasma cholesterol [17]: 51 mg/dL; Change [18]: 76%; Change [19]: -72%; Plasma cholesterol [20]: 124 mg/dL; Non-HDL-C [21]: 59; Plasma TG [22]: 58 mg/dL; Change [23]: -59%; Change [24]: -41% and -40%; Plasma cholesterol [25]: 72 mg/dL; Change [26]: 17%
